Laboratory results: patent US8278033B2, “Efficient well being assessment and improved treatment protocol” (priority 2008, dated 2012)
Several values for one entry are separate records, joined by “and”; a condition that tells them apart may be missing. Identical values can stand only once.

Legend:
[1] = test system: tumor cells; experiment: Direct antitumor (AT) score on slides of tumor cell cultures; format: cell-based, human; conditions: direct antitumor effects; concentrations as in Table 1
Description: (§1) Solid tumors are minced to pieces smaller than 1 mm (small enough to be aspirated into a standard disposable 10 ml pipette) with high quality curved surgical scissors. Medium in which said tumors may have been transported is reserved, along with the supernatant from the tissue mince. Scissor-minced tumor pieces are digested with collagenase/DNase in RPMI-1640 containing antibiotics and 10% fetal calf serum. Specimens are digested in 50 ml disposable polypropylene centrifuge tubes, assisted by gentle mixing with plastic-coated, magnetic stirring bars over a stirring plate. Specimens are thusly mixed until complete gross digestion has taken place—typically about 2-3 hours for a 1-3 gram specimen. Cytospin slides are then prepared from all cell fractions (transport medium, supernatant from tissue mince, and enzyme digestate), and stained with fast green-H&E, as described previously (Weisenthal, et al., “A Novel Dye Exclusion Method for Testing in vitro Chemosensitivity of Human Tumors,” Cancer Res. (1983) 43:749-757).
To assay for endothelial cells are mixed with, for example, 10% (volume/volume) or, for example, 1% (volume/volume) or intermediate percentages of antiangiogenic drug containing solution or vehicle control (most typically 0.9% NaCl). Final volume of cell suspension/drug solution (or vehicle) plated for culture can be 0.12 ml. Culturing is in polypropylene round bottom, 96-well culture dishes in a humidified 37° C. incubator for a standardized duration of time.
Cells are cultured with the index concentration of each drug and, if desired, with dilutions of the index concentration, where the index concentration is determined from training set assays or from the literature. Negative controls generally consist of 0.9% NaCl, and/or the vehicle in which an antiangiogenic drug is dissolved. Replicate 96-well plates are tested.
(§2) For this determination, the results provided in Table 1 are 10× multiples of the scoring system of the previous paragraph.
(§3) The scores provided in FIG. 2 were multiplied by 10 and averaged to give an anti-vascular score (AVS) shown in column 2; the average AVS for the vehicle alone (VAVS) is shown in column 3 and the level of the statistical significance of their difference is shown in column 4. The AVS score was corrected for the effect of vehicle by subtraction as shown in column 5. The antitumor score (AT) is shown in column 6.

[2] = test system: endothelial cells; experiment: Anti-vascular score (AVS) on Fast Green/H&E slides of tumor cell cultures, averaged over paired comparisons; format: cell-based, human; design: key to Anti-Vascular Score (AVS) (Avg): 10x the 0+ to 5+ anti-microvascular score (max 50); key to AVS minus VAVS (Avg): AVS minus vehicle AVS, on 10x the 0+ to 5+ scale; conditions: for Anti-Vascular Score (AVS) (Avg): 10x multiples of the 0+ to 5+ score, average of N paired comparisons, bevacizumab 2.5 mg/ml, DMSO 0.5% + EtOH 0.5%, cisplatin 3.3, sunitinib 8.35, gefitinib 22.35, erlotinib 89.4, sorafenib 12.5, imatinib 12.5 μg/ml; for AVS minus VAVS (Avg): AVS corrected for the effect of vehicle by subtraction; for AVS minus VAVS (Avg) / (AVS − VAVS)/AT Ratio (Avg): concentrations as in Table 1; for (AVS − VAVS)/AT Ratio (Avg): ratio of vehicle-corrected AVS to antitumor score
Description: as §1
Final volume of cell suspension/drug solution (or vehicle) plated for culture can be 0.12 ml. Culturing is in polypropylene round bottom, 96-well culture dishes in a humidified 37° C. incubator for a standardized duration of time.
Cells are cultured with the index concentration of each drug and, if desired, with dilutions of the index concentration, where the index concentration is determined from training set assays or from the literature. […] Replicate 96-well plates are tested.
The various drugs were rated by scoring on a 0+ to 5+ scale for the anti-microvascular effects, with 5+ being the highest possible score. […] The “nib” drugs are kinase inhibiting drugs.
as §2, §3
Finally, the ratio of AVS (corrected for the effect of vehicle) to the antitumor score is shown in the last column.

[3] = test system: endothelial cells; experiment: Anti-microvascular effects in non-Hodgkin's Lymphoma lymph node biopsy culture (ImageJ and manual scores); format: cell-based, human; conditions: for concentration at which anti-angiogenic cell effects were achievable / anti-microvascular activity (in words): NHL lymph node biopsy sample; for concentration at which anti-angiogenic cell effects were achievable: FIG. 7; for anti-microvascular activity (in words): FIG. 6
Source text: (§4) A lymph node biopsy was obtained from a non-Hodgkin's Lymphoma patient and processed and stained as described above. […] The cells can also be imaged using publicly available “ImageJ” software available from the National Institutes of Health (NIH) to assist quantitation. The image is converted to 8-bit black and white threshold gated to paint only the dead endothelial cells.
The raw scores for the gated features (putative dead endothelial cells) are normalized for uneven cell distributions by image analyzing each area twice: first with the detection threshold set to gate only the features of interest (putative dead endothelial cells) and then again to detect all features on the slide (this would be analogous to normalizing gene copy to total DNA in cell extracts).

[4] = test system: endothelial cells; experiment: Endothelial cell killing by drugs and combinations in a poorly differentiated breast cancer specimen; format: cell-based, human; conditions: for effectiveness in endothelial cell killing (in words): Fast Green/H&E
Source text: A specimen of poorly differentiated breast cancer was used in the procedures set forth in the previous examples and tested with various drugs and drug combinations as described above.

[5] = test system: non-Hodgkin's Lymphoma (NHL) cells; experiment: Direct antitumor cell effects in non-Hodgkin's Lymphoma lymph node biopsy culture; format: cell-based, human; conditions: NHL lymph node biopsy sample, FIG. 6
Source text: as §4
(§5) The objective, automated ImageJ scores for both individual gated features and also for total area (originally in pixels squared) is shown. The raw scores for the gated features (putative dead endothelial cells) are normalized for uneven cell distributions by image analyzing each area twice: first with the detection threshold set to gate only the features of interest (putative dead endothelial cells) and then again to detect all features on the slide (this would be analogous to normalizing gene copy to total DNA in cell extracts). Shown additionally are the subjective (0+ to 5+) manual anti-vascular scores which were obtained one month before the installed the ImageJ software was installed. Shown additionally are the direct antitumor cell effects of each of the drugs and solvents tested.

[6] = test system: endothelial cells; experiment: Anti-microvascular effect scoring, Fast Green/H&E stained pancreatic carcinoid tumor suspension culture; format: cell-based, human
Description: as §1
Final volume of cell suspension/drug solution (or vehicle) plated for culture can be 0.12 ml. […]
Cells are cultured with the index concentration of each drug and, if desired, with dilutions of the index concentration, where the index concentration is determined from training set assays or from the literature. […]

[7] = test system: endothelial cells; experiment: Endothelial cell death in cultured peripheral blood chronic lymphocytic leukemia cells; format: cell-based, human; conditions: peripheral blood CLL cells cultured 4 days, 2.5 mg/ml
Source text: They are readily apparent as refractile, angular small cells of smaller dimension than the surrounding cells. These cells are about one-third the size of lymphocytes and are about 3μ in diameter.

[8] = test system: endothelial cells; conditions: microaggregates of tumor biopsies, WO 2007/075440; cited from earlier work
[9] = test system: endothelial cells; experiment: ImageJ quantitation of dead endothelial cells in cultured lymph samples; format: cell-based, human; conditions: all of the lymphoma patients
Source text: as §4, §5
Lymph samples from five lymphoma patients and two normal volunteers were cultured and stained as described above. […] The quantitation of results was as described in Example 4 using ImageJ software.

[10] = test system: tumor cells; conditions: microaggregates of tumor biopsies, WO 2007/075440; cited from earlier work
[11] = test system: vascular endothelial growth factor (VEGF); experiment: Level of VEGF in tumor cell cultures (optical density 450 nm minus 570 nm); format: cell-based, human
Description: The observed ability of EtOH/DMSO to effect killing of microvascular/endothelial cells may be due to the ability of these solvents to reduce the levels of VEGF in cell culture. It is known that tumor cells secrete VEGF and VEGF is needed, for the growth of neovasculature. Accordingly, a number of tumor cell cultures were treated with these solvents. The level of VEGF in the cultures was measured by subtracting the optical density at 570 nm from the optical density of 450 nm.
For tumor samples preserved in 10% DMSO, only very low levels of VEGF were observed. […] Of particular interest are the cells from Patient 6, shown at the end of the table.

Compound | Anti-Tumor (AT) Score (Avg) [1] | Anti-Vascular Score (AVS) (Avg) [2] | AVS minus VAVS (Avg) [2] | (AVS − VAVS)/AT Ratio (Avg) [2] | anti-microvascular activity (in words) [3] | direct antitumor activity (in words) [5] | other results
N.N.[Cl][Pt][Cl] [Cisplatin] | 59.2 | 4.5 | 0.6 | 0.01 |  |  | 
C[S+](C)[O-] [DMSO] |  |  |  |  |  |  | concentration at which anti-angiogenic cell effects were achievable [3]: 0.125 % of the final medium
C#Cc1cccc(Nc2ncnc3cc(OCCOC)c(OCCOC)cc23)c1 [Erlotinib, erlotinib] | 22.5 | 16.2 | 4.2 | 0.19 | comparable to those of vehicle alone | to a lesser extent, erlotinib acted directly on tumor cells | effectiveness in endothelial cell killing (in words) [4]: None appeared particularly effective
COc1cc2ncnc(Nc3ccc(F)c(Cl)c3)c2cc1OCCCN1CCOCC1 [Gefitinib, gefitinib] | 28.5 | 8.3 | 4.5 | 0.16 |  |  | anti-microvascular effects score (0+ to 5+ scale) ([6]; pancreatic carcinoid tumor suspension culture, bevacizumab at 2.5 mg/ml, Fast Green/H&E): 0
Cc1ccc(NC(=O)c2ccc(CN3CCN(C)CC3)cc2)cc1Nc1nccc(-c2cccnc2)n1 [Imatinib, imatinib] | 23.6 |  | 2.8 |  | comparable to those of vehicle alone | acted directly on tumor cells | effectiveness in endothelial cell killing (in words) [4]: None appeared particularly effective
CNC(=O)c1cc(Oc2ccc(NC(=O)Nc3ccc(Cl)c(C(F)(F)F)c3)cc2)ccn1 [Sorafenib, sorafenib] | 28.7 |  | 1.4 |  | comparable to those of vehicle alone | acted directly on tumor cells | 
CCN(CC)CCNC(=O)c1c(C)[nH]c(/C=C2\C(=O)Nc3ccc(F)cc32)c1C [Sunitinib, sunitinib] | 25.8 | 9.5 | 4.9 | 0.19 |  |  | 
COc1cccc2c1C(=O)c1c(O)c3c(c(O)c1C2=O)C[C@@](O)(C(=O)CO)C[C@@H]3O[C@H]1C[C@H](N)[C@H](O)[C@H](C)O1 [doxorubicin] |  |  |  |  | relatively ineffective as anti-microvascular agents | direct antitumor effects | 
CCO [ethanol] |  |  |  |  |  |  | concentration at which anti-angiogenic cell effects were achievable [3]: 0.125 % of the final medium
bevacizumab | 12.9 | 24.7 | 19.7 |  |  | essentially no direct antitumor effects | endothelial cell death [7]: caused endothelial cell death; endothelial cell death (appearance after Fast Green/H&E) ([6]; pancreatic carcinoid tumor, 96 hours in suspension culture, 2.5 mg/ml): resulting in endothelial cell death; effect on endothelial cells (in words) [8]: endothelial cells showing up dead; visibility of endothelial cells (in words) [9]: greatly enhanced; dead endothelial cells (200x view) ([3]; NHL lymph node biopsy cells cultured 4 days): presence of dead endothelial cells is readily apparent; anti-microvascular score ([4]; drug alone): +1; effect on tumor cells (in words) [10]: tumor cells remain unaffected; 450-570 O.D. (level of VEGF) ([11]; Pt 1 cells (Merkel tumor, 10% DMSO cryopreserved), 1.25 mg/ml, wells #1-#3, listed as Bev): 0.054 and 0.059; 450-570 O.D. (level of VEGF) ([11]; Pt 1 cells (Merkel tumor, 10% DMSO cryopreserved), 2.5 mg/ml, wells #1-#3, listed as Bev): 0.051 and 0.052 and 0.054; 450-570 O.D. (level of VEGF) ([11]; Pt 2 cells (ovarian, 10% DMSO cryopreserved), 1.25 mg/ml, wells #1-#3, listed as Bev): 0.059 and 0.055 and 0.054; 450-570 O.D. (level of VEGF) ([11]; Pt 2 cells (ovarian, 10% DMSO cryopreserved), 2.5 mg/ml, wells #1-#3, listed as Bev): 0.052 and 0.056 and 0.054; 450-570 O.D. (level of VEGF) ([11]; Pt 3 cells (breast, fresh), 2.5 mg/ml, wells #1-#2, listed as Bev): 0.056 and 0.059; 450-570 O.D. (level of VEGF) ([11]; Pt 4 cells (NHL, fresh), 1.25 mg/ml, wells #1-#2, listed as Bev): 0.074 and 0.068; 450-570 O.D. (level of VEGF) ([11]; Pt 4 cells (NHL, fresh), 2.5 mg/ml, wells #1-#2): 0.055; 450-570 O.D. (level of VEGF) ([11]; Pt 5 cells (breast, fresh), 2.5 mg/ml, well #1): 0.053; 450-570 O.D. (level of VEGF) ([11]; Pt 6 cells (breast, fresh), 1.25 mg/ml, well #1): 0.063; 450-570 O.D. (level of VEGF) ([11]; Pt 6 cells (breast, fresh), 2.5 mg/ml, well #1): 0.052; levels of VEGF (in words) ([11]; fresh breast tumor cells, untreated levels off-scale): could be brought to 0
